From patent US9242937B2, “Pharmaceutically active disubstituted pyridine derivatives” (Bayer Intellectual Property GmbH, priority 2011, dated 2016)

Tests used:
[1] = biological target: T1, CDK9/Cyclin T1 (Homo sapiens, UniProt P50750); experiment: LanthaScreen Eu Kinase Binding Assay, CDK9/Cyclin T1; settings: tracer 236, read-out: CDK9/Cyclin T1 (activity range), Kd
T1 construct: purchased Invitrogen
Protocol: (§1) This protocol describes how the LanthaScreen Eu Kinase Binding Assay was performed to determine dissociation constants (Kd) of compounds of general formula (I) and CDK/Cyclin complexes. The principle behind this assay is based upon the binding and displacement of an Alexa Fluor 647-labeled tracer, which binds to the active site of kinases. Binding of the tracer to the kinase is detected using a Eu-labeled antibody. Simultaneous binding of both the tracer and antibody to the kinase gives rise to a FRET-signal. Binding of an inhibitor to the kinase competes for binding with the tracer, resulting in a loss of FRET.
(§2) The compounds of general formula (I) summarized in Table 1 were diluted from a 10 mM DMSO stock solution 1:10 in a total volume of 15 μL DMSO. This compound predilution was then serial diluted 1:3 over 8 steps in DMSO and briefly spun down. Each compound solution was now diluted 1:33.33 in kinase buffer (HEPES: 20 mM, pH: 8.0; MgCl2: 10 mM; DTT: 1 mM; Brij-35: 0.01%), mixed thoroughly and spun down. For every sample, 5 μL of the diluted compound were mixed with 5 μL tracer working solution (e.g. 60 nM tracer 236 in kinase buffer for CDK2/Cyclin A) and 5 μL CDK/Cyclin/Anti-GST-AB-working solution (e.g. 15 nM CDK2/Cyclin A, 1:250 dilution of Anti-GST-AB in kinase buffer) in a well of a small volume 384 well plate (Corning Incorporated, Corning, N.Y., USA; order no. 3673). The tracer concentration was adjusted to its dissociation constant (Kd) for the CDK/Cyclin, which was 30 nM for CDK2/Cyclin A, CDK7/Cyclin H and CDK9/Cyclin T1, 20 nM for CDK8/Cyclin C, and 35 nM for CDK9/Cyclin K. For negative controls, in each well 5 μL of DMSO working solution (3% DMSO diluted in kinase buffer) was mixed with 5 μL Anti-GST-AB working solution (e.g. 1:250 dilution of Anti-GST-AB in kinase buffer for CDK2/Cyclin A) and 5 μL Tracer working solution (e.g. 60 nM Tracer 236 in kinase buffer for CDK2/Cyclin A). For positive controls, in each well 5 μL of DMSO working solution (3% DMSO diluted in kinase buffer) was mixed with 5 μL CDK/Cyclin/Anti-GST-AB-working solution: (e.g. 15 nM CDK2/Cyclin A, 1:250 dilution of Anti-GST-AB in kinase buffer) and 5 μL Tracer working solution (e.g. 60 nM Tracer 236 in kinase buffer for CDK2/Cyclin A). Positive and negative controls were calculated from at least 8 different sample wells. The 384 well plates were mixed in a Teleshaker plate mixer (Beckman Coulter, Brea, Calif., USA) at 2000 rpm for 40 sec, and incubated for 1 h at room temperature before reading. The FRET signal was measured at 340 nm excitation, 665 nm and 615 nm emission (for the kinase tracer and LanthaScreen Eu-AB, respectively) with an Envision spectrophotometer (Perkin Elmer, Waltham, Mass., USA) with 50 μs delay and 300 μs integration time. Kd values were determined from the sigmoidal dose response curves with the software Quattro Workflow (Quattro GmbH, Munich, Germany).

[2] = biological target: T2, CDK7/CyclinH/MAT1 (Homo sapiens, UniProt P50613); experiment: LanthaScreen Eu Kinase Binding Assay, CDK7; settings: tracer 236, read-out: CDK7 (activity range), Kd
T2 construct: purchased Carna Biosciences
T2 sequence (P50613 whole entry): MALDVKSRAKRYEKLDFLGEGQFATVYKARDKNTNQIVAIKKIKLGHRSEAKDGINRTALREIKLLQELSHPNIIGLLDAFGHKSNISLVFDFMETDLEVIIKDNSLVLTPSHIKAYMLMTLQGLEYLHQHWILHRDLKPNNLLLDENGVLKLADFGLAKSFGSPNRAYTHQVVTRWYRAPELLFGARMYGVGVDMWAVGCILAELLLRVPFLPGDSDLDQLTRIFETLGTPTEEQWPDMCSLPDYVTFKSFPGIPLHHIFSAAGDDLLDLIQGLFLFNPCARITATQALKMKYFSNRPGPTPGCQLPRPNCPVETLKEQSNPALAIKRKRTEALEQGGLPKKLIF
T2 sequence (P51946 whole entry partner): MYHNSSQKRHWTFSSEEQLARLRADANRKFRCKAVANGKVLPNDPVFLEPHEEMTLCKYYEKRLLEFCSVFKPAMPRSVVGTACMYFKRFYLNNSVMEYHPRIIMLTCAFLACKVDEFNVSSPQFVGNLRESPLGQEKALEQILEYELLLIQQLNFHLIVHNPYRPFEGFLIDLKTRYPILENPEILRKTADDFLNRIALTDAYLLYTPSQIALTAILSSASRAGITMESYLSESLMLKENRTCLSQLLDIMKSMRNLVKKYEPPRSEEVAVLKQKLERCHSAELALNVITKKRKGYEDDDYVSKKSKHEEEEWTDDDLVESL
T2 sequence (P51948 whole entry partner): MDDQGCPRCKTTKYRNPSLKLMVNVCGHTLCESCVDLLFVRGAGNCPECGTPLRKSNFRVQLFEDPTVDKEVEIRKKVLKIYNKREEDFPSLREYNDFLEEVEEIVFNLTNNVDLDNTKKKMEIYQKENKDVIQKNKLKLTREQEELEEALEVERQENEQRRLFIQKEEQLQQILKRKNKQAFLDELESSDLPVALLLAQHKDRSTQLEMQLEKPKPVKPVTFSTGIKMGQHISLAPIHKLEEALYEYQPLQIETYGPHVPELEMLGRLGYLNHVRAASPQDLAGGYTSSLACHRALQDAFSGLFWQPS
Protocol: as §1, §2

[3] = biological target: T3, CDK2/CyclinA (Homo sapiens, UniProt P24941); experiment: Lance Ultra KinaSelect Assay, CDK2; format: biochemical; settings: ULight MBP substrate, ATP 3 μM; read-out: CDK2 LANCE assay (activity range), IC50
T3 construct: purchased Proqinase
Protocol: (§3) This protocol describes how the Lance Ultra KinaSelect Assay was performed to determine half maximal inhibitory concentration (IC50) of compounds of general formula (I) and CDK/Cyclin complexes. The principle behind this enzymatic assay is based upon the phosphorylation of the ULight-Peptide Substrat. It is detected by using a specific EU-labeled anti-phospho peptide antibody. The binding of the Eu-labeled anti-phospho peptide antibody to the phosphorylated ULight labeled peptide gives rise to a FRET-signal. Binding of an inhibitor to the kinase prevents phosphorylation of the ULight-MBP Substrat, resulting in a loss of FRET.
(§4) The compounds of general formula (I) summarized in Table 5 were diluted from a 10 mM DMSO stock solution 1:10 in a total volume of 15 μL DMSO. This compound predilution was then serial diluted 1:3 over 8 steps in DMSO and briefly spun down. Each compound solution was now diluted 1:20 in Enzymatic Buffer (HEPES: 50 mM, pH: 7.5; MgCl2: 10 mM; EGTA: 1 mM; DTT: 2 mM; Tween-20: 0.01%), mixed thoroughly and spun down. For every sample, 2 μL of the diluted compound were mixed with 6 μL CDK/Cyclin/Substrat solution and 2 μL ATP solution in a well of a small volume 384 well plate (Corning Incorporated, Corning, N.Y., USA; order no. 3673). The CDK/Cyclin was diluted to the appropriate concentration (see Table 3) and the ATP concentration was adjusted to its […] for the CDK/Cyclin, which was 3 μM for CDK2/Cyclin A, 20 μM for CDK1/Cyclin B1, 25 μM for CDK7/Cyclin H and CDK9/Cyclin T1, 55 μM for CDK6/Cyclin D3, 90 μM for CDK4/Cyclin D1 and 125 μM for CDK9/Cyclin K. For negative controls, in each well 2 μL of DMSO solution (1% final DMSO assay concentration) was mixed with 6 μL substrate solution (50 nM ULight MBP final assay concentration) and 2 μL ATP solution (appropriate final concentration see Table 3). For positive controls, in each well 2 μL of DMSO solution (1% final DMSO assay concentration) was mixed with 6 μL CDK/Cyclin/Substrat (appropriate final concentration see Table 3) and 2 μL Tracer ATP solution (appropriate final concentration see Table 3). Positive and negative controls were calculated from at least 8 different sample wells. The 384 well plates were mixed in a Teleshaker plate mixer (Beckman Coulter, Brea, Calif., USA) at 2000 rpm for 40 sec, and incubated for 1 h at room temperature. Before reading, 10 μL the detection buffer (Lance Detection Buffer 1×; EDTA: […]; Eu-Anti-P-MBP: see Table 3) was added. The FRET signal was measured at 340 nm excitation, 665 nm and 615 nm emission (for the kinase tracer and LanthaScreen Eu-AB, respectively) with an Envision spectrophotometer (Perkin Elmer, Waltham, Mass., USA) with 50 μs delay and 300 μs integration time. IC50 values were determined from the sigmoidal dose response curves with the software Quattro Workflow (Quattro GmbH, Munich, Germany).

[4] = biological target: T2, CDK7/CyclinH/MAT1; experiment: Lance Ultra KinaSelect Assay, CDK7; format: biochemical; settings: ULight MBP substrate, ATP 25 μM; read-out: CDK7 LANCE assay (activity range), IC50
Protocol: as §3, §4

[5] = biological target: T3, CDK2/CyclinA; experiment: LanthaScreen Eu Kinase Binding Assay, CDK2; settings: tracer 236, read-out: CDK2 (activity range), Kd
Protocol: as §1, §2

[6] = biological target: T4, CDK9 (Homo sapiens, UniProt P50750); experiment: Lance Ultra KinaSelect Assay, CDK9; format: biochemical; settings: ULight MBP substrate; cyclin partner not stated in Table 5; read-out: CDK9 LANCE assay (activity range), IC50
T4 construct: purchased Invitrogen
T4 sequence (P50750 whole entry): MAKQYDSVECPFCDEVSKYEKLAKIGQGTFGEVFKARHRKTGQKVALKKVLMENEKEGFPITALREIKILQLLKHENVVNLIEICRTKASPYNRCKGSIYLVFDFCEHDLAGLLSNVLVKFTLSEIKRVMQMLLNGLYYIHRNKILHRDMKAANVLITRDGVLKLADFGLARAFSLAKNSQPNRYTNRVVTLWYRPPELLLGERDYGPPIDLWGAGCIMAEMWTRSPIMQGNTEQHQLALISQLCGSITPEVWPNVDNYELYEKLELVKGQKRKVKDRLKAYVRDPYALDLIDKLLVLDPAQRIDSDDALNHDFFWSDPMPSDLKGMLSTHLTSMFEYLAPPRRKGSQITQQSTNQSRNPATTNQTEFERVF
Protocol: as §3, §4

T1 sequence (P50750 whole entry): as above
T1 sequence (O60563 whole entry partner): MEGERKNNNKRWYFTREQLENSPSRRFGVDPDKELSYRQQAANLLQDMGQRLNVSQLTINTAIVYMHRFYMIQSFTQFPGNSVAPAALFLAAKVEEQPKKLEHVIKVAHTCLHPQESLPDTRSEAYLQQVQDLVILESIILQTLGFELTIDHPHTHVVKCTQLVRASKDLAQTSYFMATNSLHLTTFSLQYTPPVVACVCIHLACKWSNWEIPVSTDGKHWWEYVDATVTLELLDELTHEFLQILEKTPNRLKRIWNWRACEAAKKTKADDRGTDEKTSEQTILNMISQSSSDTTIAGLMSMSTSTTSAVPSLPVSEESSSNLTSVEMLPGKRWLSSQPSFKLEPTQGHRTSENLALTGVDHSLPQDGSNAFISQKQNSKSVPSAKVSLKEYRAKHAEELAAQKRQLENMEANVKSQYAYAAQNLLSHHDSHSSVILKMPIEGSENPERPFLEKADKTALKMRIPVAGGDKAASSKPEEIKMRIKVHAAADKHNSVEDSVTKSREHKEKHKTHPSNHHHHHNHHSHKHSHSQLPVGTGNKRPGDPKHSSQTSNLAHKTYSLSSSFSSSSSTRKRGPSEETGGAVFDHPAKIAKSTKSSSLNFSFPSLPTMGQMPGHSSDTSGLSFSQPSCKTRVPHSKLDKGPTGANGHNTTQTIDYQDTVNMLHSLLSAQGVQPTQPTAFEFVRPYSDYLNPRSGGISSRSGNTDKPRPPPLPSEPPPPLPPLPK

Kd [1]	Kd [2]	IC50 [3]	IC50 [4]	Kd [5]	IC50 [6]	SMILES
1 to 10 µM	> 10 µM	–	–	–	–	COc1cc(F)ccc1-c1ccnc(Nc2cccc(S(=O)(=O)NC(C)(C)C)c2)c1 [Compound D2, N-(tert-Butyl)-3-[(4-(4-fluoro-2-methoxyphenyl)pyridin-2-yl)amino]-benzenesulfonamide]
< 0.1 µM	> 10 µM	0.1 to 1 µM	> 10 µM	< 0.1 µM	< 0.1 µM	COc1ccccc1-c1ccnc(Nc2cccc(CS(N)(=O)=O)c2)c1 [Compound G2, [3-((4-(2-Methoxyphenyl)pyridin-2-yl)amino)phenyl]-methanesulfonamide]
< 0.1 µM	> 10 µM	1 to 10 µM	> 10 µM	0.1 to 1 µM	< 0.1 µM	COc1ccccc1-c1ccnc(Nc2cccc(CCS(N)(=O)=O)c2)c1 [Compound H1, 2-[3-((4-(2-Methoxyphenyl)pyridin-2-yl)amino)phenyl]-ethanesulfonamide]
